Measured values taken from US20230201487A1, “NEBULIZER DEVICE OPTIMIZATION FOR IMPROVED AEROSOL PARAMETERS AND USES THEREOF” (Avalyn Pharma Inc., priority 2020, published 2023).
Marks after values point to notes of the source that are not given here.

What was measured:
Type in all cases: physicochemical
[1] = Respirable aerosol droplet output rate by laser diffraction and gravimetric total output rate, simulated breathing, eFlow nebulizer; conditions: for Output rate Benefit, Combined Effect (Vented + XL): vented XL vs. non-vented L
Method: As an initial analysis, emitted aerosol saline and pirfenidone aqueous solution formulation droplet size as a function of time was measured using a Helos, Sympatec laser under partially simulated breathing conditions (adult breathing pattern, 500 mL tidal volume, 15 breaths/min with a 1:1 inhalation: exhalation ratio) using a Compas 2 breath simulator. Briefly, twelve investigational PART eFlow® nebulizers (with 6 L and 6 XL aerosol mixing chambers) with a single set of 6 (six) aerosol head class 35 (6 total heads; Table 1) were used in both L (about 49 cc volume aerosol mixing chamber) and XL (about 98 cc volume aerosol mixing chamber) configurations and tested in triplicate with the 8 mL of pirfenidone aqueous solution medicine cup reservoir under atmospheric conditions (vented) and permitting generation of negative pressure (non-vented). The following exemplary replicates were performed: A. Head 1/L/vented, B. Head 1/L/non-vented, C. Head 1/XL/vented, D. Head 1/XL/non-vented, and repeated in the following order: A, B, C, D, A, B, C, D, A, B, C, D. Results are shown in Table 2.
In this analysis, respirable aerosol droplet output rate of saline and pirfenidone formulation was determined by multiplying the respirable fraction (RF; percent emitted aerosol droplets with a diameter less than 5 microns at 20 second increments) by total output rate (TOR; calculated by dividing the total nebulizer weight loss by nebulization duration). Saline was made as 150 mM sodium chloride in water, while the pirfenidone formulation was 12.5 mg/mL pirfenidone in 5 mM citrate buffer, pH 6.0, 150 mM sodium chloride and 0.75 mM sodium saccharin in water. Duration to nebulize 8 mL saline was 8.6 min, 12.6 min, 8.5 min and 12.0 min for vented “L”, non-vented “L”, vented “XL” and non-vented “XL”, respectively. Duration to nebulize 8 mL AP01 was 8.4 min, 12.3 min, 8.3 min and 12.4 min for vented “L”, non-vented “L”, vented “XL” and non-vented “XL”, respectively.

[2] = Respirable delivered dose during breath simulation, inspiratory filters, HPLC; parameters: Slope of respirable delivered dose: unit not given here; conditions: for Total respirable delivered pirfenidone dose over 8 minutes: 8 mL of 12.5 mg/mL
Method: For a more clinically relevant comparison, in a second analysis, of aerosol delivery parameters for pirfenidone in solution, the respirable delivered dose (RDD; amount of deposited pirfenidone from aerosol droplets less than 5 microns in diameter) was measured during breath simulation (adult breathing pattern, 500 mL tidal volume, 15 breaths/min with a 1:1 inhalation: exhalation ratio) using a Compas 2 breath simulator was used as follows. Briefly, twelve investigational eFlow® (with 6 L and 6 XL aerosol mixing chambers) with a single set of 6 (six) aerosol head class 35 (6 total heads; Table 1) were used in both (about 49 cc volume) and XL (about 98 cc volume) aerosol mixing chamber configurations and tested in duplicate with the 8 mL medicine cup reservoir under atmospheric conditions (vented) and permitting generation of negative pressure (non-vented) during nebulization. An 8 mL dose (aqueous pirfenidone solution at concentration of 12.5 mg/ml) was loaded into the medicine cup reservoir and nebulization initiated. After 2, 4, 6 and 8 min of nebulization, inspiratory filters were collected and extracted for pirfenidone quantitation using HPLC analysis. A final filter was used after 8 min to collect remaining dose. The following exemplary replicates were performed: A. Head 1/L/vented, B. Head 1/L/non-vented, C. Head 1/XL/vented, D. Head 1/XL/non-vented, and repeated in the following order: A, B, C, D, A, B, C, D. Results are shown in Table 4.

[3] = Aerosol head/assembled device correlation study (TOR, VMD, GSD, nebulization time), 53 aerosol heads; conditions: Vented, XL Device
Method: To establish an aerosol generator (head) specification meeting the desired delivery of 8 mL aqueous pirfenidone solution in the assembled nebulizer device 1 not exceeding 16 minute delivery time (or an 0.5 mL/min output rate), a correlation study between the head-only performance with 0.9% NaCl (saline) and the assembled nebulizer device 1 (vented, XL configuration) performance with aqueous pirfenidone was conducted. Using heads only, the aerosol characteristics total output rate (TOR), volumetric median diameter (VMD) and geometric standard deviation (GSD) were performed under constant negative pressure (−250 mbar; relative to atmospheric pressure) and under ambient, atmospheric pressure conditions (0 mbar; relative to atmospheric pressure).
These heads were either tested alone using a special apparatus (saline −250 mbar or 0 mbar) or in assembled devices (saline and aqueous pirfenidone; 8 mL vented medicine cup reservoir 3 and XL aerosol mixing chamber 8 configuration).

Benefit of aerosol mixing chamber volume on respirable aerosol droplet output rate ([1]; all device configurations regardless of medicine cup pressure): −2 to −5.5%
Output rate Benefit, Maintaining Atmospheric Pressure (Vented) ([1]; vented L vs. non-vented L, 0-2 min): about +19.4%
Output rate Benefit, Maintaining Atmospheric Pressure (Vented) ([1]; vented L vs. non-vented L, 6-8 min): about +17.5%
Output rate Benefit, Combined Effect (Vented + XL) ([1]; 0-2 min): about +17%
Output rate Benefit, Combined Effect (Vented + XL) ([1]; 6-8 min): ~+12.6%
Output rate Benefit, Maintaining Atmospheric Pressure (Vented) ([1]; vented XL vs. non-vented XL, 0-2 min): about +23.8%
Output rate Benefit, Maintaining Atmospheric Pressure (Vented) ([1]; vented XL vs. non-vented XL, 6-8 min): about +17%
Theoretical total delivery rate ([2]; assuming a fifty percent respirable delivered dose, 12.5 mg/mL): 6.25 mg per minute
Slope of respirable delivered dose ([2]; non-vented (NV), L aerosol mixing chamber): −0.16
Respirable Delivered Dose ([2]; non-vented (NV), L aerosol mixing chamber, 0-2 min): 5.75 mg/time increment
Respirable Delivered Dose ([2]; non-vented (NV), L aerosol mixing chamber, 2-4 min): 5.71 mg/time increment
Respirable Delivered Dose ([2]; non-vented (NV), L aerosol mixing chamber, 4-6 min): 5.49 mg/time increment
Respirable Delivered Dose ([2]; non-vented (NV), L aerosol mixing chamber, 6-8 min): 5.27 mg/time increment
Slope of respirable delivered dose ([2]; non-vented (NV), XL aerosol mixing chamber): −0.20
Respirable Delivered Dose ([2]; non-vented (NV), XL aerosol mixing chamber, 0-2 min): 6.50 mg/time increment
Respirable Delivered Dose ([2]; non-vented (NV), XL aerosol mixing chamber, 2-4 min): 6.44 mg/time increment
Respirable Delivered Dose ([2]; non-vented (NV), XL aerosol mixing chamber, 4-6 min): 6.37 mg/time increment
Respirable Delivered Dose ([2]; non-vented (NV), XL aerosol mixing chamber, 6-8 min): 5.87 mg/time increment
RDD Benefit, Increased Aerosol mixing chamber (XL) ([2]; non-vented L vs. non-vented XL, 0-2 min): 13.15^g %
RDD Benefit, Increased Aerosol mixing chamber (XL) ([2]; non-vented L vs. non-vented XL, 6-8 min): 11.28^g %
Respirable delivered dose per minute ([2]; non-vented L, 12.5 mg/mL): 2.78 mg/min
Total respirable delivered pirfenidone dose over 8 minutes ([2]; non-vented L): 22.22 mg
Slope of respirable delivered dose ([2]; vented (V), L aerosol mixing chamber): 0.12
Respirable Delivered Dose ([2]; vented (V), L aerosol mixing chamber, 0-2 min, 8 mL of 12.5 mg/ml): 5.97 mg/time increment
Respirable Delivered Dose ([2]; vented (V), L aerosol mixing chamber, 2-4 min): 6.16 mg/time increment
Respirable Delivered Dose ([2]; vented (V), L aerosol mixing chamber, 4-6 min): 6.33 mg/time increment
Respirable Delivered Dose ([2]; vented (V), L aerosol mixing chamber, 6-8 min): 6.32 mg/time increment
Slope of respirable delivered dose ([2]; vented (V), XL aerosol mixing chamber): 0.13
Respirable Delivered Dose ([2]; vented (V), XL aerosol mixing chamber, 0-2 min): 6.65 mg/time increment
Respirable Delivered Dose ([2]; vented (V), XL aerosol mixing chamber, 2-4 min): 7.07 mg/time increment
Respirable Delivered Dose ([2]; vented (V), XL aerosol mixing chamber, 4-6 min): 7.01 mg/time increment
Respirable Delivered Dose ([2]; vented (V), XL aerosol mixing chamber, 6-8 min): 7.11 mg/time increment
RDD Benefit, Increased Aerosol mixing chamber (XL) ([2]; vented L vs. vented XL, 0-2 min): 11.35^e %
RDD Benefit, Increased Aerosol mixing chamber (XL) ([2]; vented L vs. vented XL, 6-8 min): 12.49^e %
Respirable delivered dose per minute ([2]; vented XL, 12.5 mg/mL): 3.48 mg/min
Total respirable delivered pirfenidone dose over 8 minutes ([2]; vented XL): 27.84 mg
Total Output Rate (TOR), Average [3]: 0.782 g/min
Total Output Rate (TOR), Max [3]: 1.049 g/min
Total Output Rate (TOR), Min [3]: 0.382 g/min
Structure (SMILES): Cc1ccc(=O)n(-c2ccccc2)c1 [pirfenidone, 5-methyl-1-phenyl-2-(1H)-pyridone]
